Test results taken from patent publication US10934295B2, “Antimicrobials and methods of making and using same” (BIOVERSYS AG, priority 2016, dated 2021).

Assays:
E. coli strain ATCC25922 = assay: standard microdilution assay, minimum inhibitory concentration (MIC); assay type: cell-based; conditions: Escherichia coli
Protocol: (§1) The in vitro activity of the compounds of the present disclosure can be determined. Antimicrobial testing is typically performed to determine the minimum inhibitory concentration (MIC). Minimum inhibitory concentrations (MICs) are determined by the microdilution method in a final volume of 100 μl according to protocols outlined by The Clinical and Laboratory Standards Institute (CLSI). Performance standards for reference strains are assessed within the same experimental design to maintain quality control. See, for example, Clinical Laboratory Standards Institute: Methods for dilution antimicrobial susceptibility tests for bacteria that grow aerobically M7-A8. Approved Standard-Eighth Edition. Wayne, Pa.: CLSI; December 2008; and Clinical Laboratory Standards Institute: Performance Standards for Antimicrobial Susceptibility Testing M100-S20; Approved Standard-Twentieth Edition. Wayne, Pa.: CLSI; June 2010. The compounds of the present disclosure were tested for antimicrobial activity. The Compounds 1-32 were run against Eschericia colt (E. coli) strain ATCC25922 and against Staphylococcus aureus (S. aureus) 11540 strain using a standard microdilution assay to determine minimum inhibitory concentrations (MICs). […] It will be recognized by one skilled in the art that the compounds can be assessed against other bacterial organisms and that the presentation of data for activity against Eschericia colt and Staphylococcus aureus are illustrative and in no way is intended to limit the scope of the present disclosure. The compounds of the present disclosure can be assayed against a range of other microorganisms depending upon the performance activity desired to be gathered. Furthermore, the “+” and “−” representation and the selection of a cutoff value of 16 micrograms/mL is also illustrative and in no way is intended to limit the scope of the present disclosure.

[1] = system: Staphylococcus aureus (S. aureus) 11540 strain; assay: as above; assay type: cell-based
Protocol: as §1

Row | MIC (E. coli strain ATCC25922) | MIC [1] | SMILES
1 | > 16 µg/mL | ≤ 16 µg/mL | C[C@H](N)CCCc1cc(Cl)c(F)c(-c2cc3cn(-c4ccc(CN[C@@H](C)CCNC(=N)N)c(CC(=O)O)c4)c(=O)nc3[nH]2)c1 [Compound 1]
2 | ≤ 16 µg/mL | ≤ 16 µg/mL | CNC(=O)Cc1cc(-n2cc3cc(-c4cc(CCC[C@H](C)N)cc(Cl)c4F)[nH]c3nc2=O)ccc1CN[C@@H](C)CCNC(=N)N [Compound 2]
3 | ≤ 16 µg/mL | ≤ 16 µg/mL | C[C@H](N)CCCc1cc(Cl)c(F)c(-c2cc3cn(-c4ccc([C@@H]5CNC[C@H](CCNC(=N)N)O5)cc4)c(=O)nc3[nH]2)c1 [Compound 5]
4 | ≤ 16 µg/mL | ≤ 16 µg/mL | C[C@H](N)CCCc1cc(Cl)c(F)c(-c2cc3cn(-c4ccc(CN[C@@H](C)CCNC(=N)N)c(S(C)(=O)=O)c4)c(=O)nc3[nH]2)c1 [Compound 6]
5 | ≤ 16 µg/mL | ≤ 16 µg/mL | C[C@H](N)CCCc1cc(Cl)c(F)c(-c2cc3cn(-c4ccc(N5CCNC(CCNC(=N)N)C5)cc4)c(=O)nc3[nH]2)c1 (stereo partly drawn) [Compound 7]
6 | ≤ 16 µg/mL | ≤ 16 µg/mL | C[C@H](N)CCCc1cc(Cl)c(F)c(-c2cc3cn(-c4ccc(CN[C@@H](C)CCNC(=N)N)c([N+](=O)[O-])c4)c(=O)nc3[nH]2)c1 [Compound 8]
7 | ≤ 16 µg/mL | ≤ 16 µg/mL | C[C@H](N)CCCc1cc(Cl)c(F)c(-c2cc3cn(-c4ccc(C(=O)N[C@@H](C)CCNC(=N)N)cc4)c(=O)nc3[nH]2)c1 [Compound 9]
8 | ≤ 16 µg/mL | ≤ 16 µg/mL | C[C@H](N)CCCc1cc(Cl)c(F)c(-c2cc3cn(-c4ccc(C(=O)N[C@@H](CO)CCNC(=N)N)cc4)c(=O)nc3[nH]2)c1 [Compound 10]
9 | ≤ 16 µg/mL | ≤ 16 µg/mL | C[C@H](N)CCCc1cc(Cl)c(F)c(-c2cc3cn(-c4ccc(CN[C@@H](C)CCNC(=N)N)c(N(C)C)c4)c(=O)nc3[nH]2)c1 [Compound 11]
10 | ≤ 16 µg/mL | ≤ 16 µg/mL | COCCOCc1cc(-n2cc3cc(-c4cc(CCC[C@H](C)N)cc(Cl)c4F)[nH]c3nc2=O)ccc1CN[C@@H](C)CCNC(=N)N [Compound 12]
11 | ≤ 16 µg/mL | ≤ 16 µg/mL | C[C@H](N)CCCc1cc(Cl)c(F)c(-c2cc3cn(-c4ccc([C@@H]5CNC[C@@H](CCNC(=N)N)O5)cc4)c(=O)nc3[nH]2)c1 [Compound 14]
12 | ≤ 16 µg/mL | ≤ 16 µg/mL | C[C@H](N)CCCc1cc(Cl)c(F)c(-c2cc3cn(-c4ccc(C(=O)N[C@H](CCNC(=N)N)CNc5ncc[nH]5)cc4)c(=O)nc3[nH]2)c1 [Compound 15]
13 | ≤ 16 µg/mL | ≤ 16 µg/mL | C[C@H](N)CCCc1cc(Cl)c(F)c(-c2cc3cn(-c4ccc(CN[C@@H](C)CCNC(=N)N)c(N5CCOCC5)c4)c(=O)nc3[nH]2)c1 [Compound 16]
14 | ≤ 16 µg/mL | ≤ 16 µg/mL | C[C@H](N)CCCc1cc(Cl)c(F)c(-c2cc3cn(-c4ccc([C@H]5CNC[C@@H](CCNC(=N)N)N5)cc4)c(=O)nc3[nH]2)c1 [Compound 17]
15 | ≤ 16 µg/mL | ≤ 16 µg/mL | C[C@H](N)CCCc1cc(Cl)c(F)c(-c2cc3cn(-c4ccc([C@H]5CNC[C@H](CCNC(=N)N)N5)cc4)c(=O)nc3[nH]2)c1 [Compound 18]
16 | ≤ 16 µg/mL | ≤ 16 µg/mL | C[C@H](N)CCCc1cc(Cl)c(F)c(-c2cc3cn(-c4ccc(C(=O)N[C@H](CCNC(=N)N)CNC(=N)N)cc4)c(=O)nc3[nH]2)c1 [Compound 19]
17 | ≤ 16 µg/mL | ≤ 16 µg/mL | C=C[C@@H](CCNC(=N)N)NC(=O)c1ccc(-n2cc3cc(-c4cc(CCC[C@H](C)N)cc(Cl)c4F)[nH]c3nc2=O)cc1 [Compound 20]
18 | ≤ 16 µg/mL | ≤ 16 µg/mL | C[C@H](N)CCCc1cc(Cl)c(F)c(-c2cc3cn(-c4ccc(C(=O)N[C@H](CCNC(=N)N)CNc5ccccn5)cc4)c(=O)nc3[nH]2)c1 [Compound 21]
19 | ≤ 16 µg/mL | ≤ 16 µg/mL | C[C@H](N)CCCc1cc(Cl)c(F)c(-c2cc3cn(-c4ccc([C@@H]5CNC[C@H](CCNC(=N)N)N5)cc4)c(=O)nc3[nH]2)c1 [Compound 22]
20 | ≤ 16 µg/mL | ≤ 16 µg/mL | C[C@H](N)CCCc1cc(Cl)c(F)c(-c2cc3cn(-c4ccc([C@@H]5CNC[C@@H](CCNC(=N)N)N5)cc4)c(=O)nc3[nH]2)c1 [Compound 23]
21 | ≤ 16 µg/mL | ≤ 16 µg/mL | CSC[C@@H](CCNC(=N)N)NCc1ccc(-n2cc3cc(-c4cc(CCC[C@H](C)N)cc(Cl)c4F)[nH]c3nc2=O)cc1 [Compound 24]
22 | ≤ 16 µg/mL | ≤ 16 µg/mL | C[C@H](N)CCCc1cc(Cl)c(F)c(-c2cc3cn(-c4ccc(C(=O)N[C@@H](CN)CCNC(=N)N)cc4)c(=O)nc3[nH]2)c1 [Compound 25]
23 | > 16 µg/mL | ≤ 16 µg/mL | C[C@H](NCCCNC(=N)N)c1ccc(-n2cc3cc(-c4cc(CCC[C@@H](N)C(F)(F)F)cc(Cl)c4F)[nH]c3nc2=O)cc1 [Compound 26]
24 | ≤ 16 µg/mL | ≤ 16 µg/mL | C[C@H](N)CCCc1cc(Cl)c(F)c(-c2cc3cn(-c4ccc([C@@H](NCCCNC(=N)N)C(F)(F)F)cc4)c(=O)nc3[nH]2)c1 [Compound 27]
25 | ≤ 16 µg/mL | ≤ 16 µg/mL | C[C@H](N)CCCc1cc(Cl)c(F)c(-c2cc3cn(-c4ccc([C@@H](NCCCNC(=N)N)C(F)F)cc4)c(=O)nc3[nH]2)c1 [Compound 28]
26 | ≤ 16 µg/mL | ≤ 16 µg/mL | N=C(N)NCC[C@@H]1CSC[C@@H](c2ccc(-n3cc4cc(-c5cc(CCC[C@@H](N)C6CC6)cc(Cl)c5F)[nH]c4nc3=O)cc2)N1 [Compound 29]
27 | ≤ 16 µg/mL | ≤ 16 µg/mL | C[C@H](N)CCCc1cc(Cl)c(F)c(-c2cc3cn(-c4ccc(CO[C@H](CCNC(=N)N)CNC(=N)N)c(F)c4)c(=O)nc3[nH]2)c1 [Compound 30]
28 | ≤ 16 µg/mL | ≤ 16 µg/mL | CSc1cc(-n2cc3cc(-c4cc(CCC[C@H](C)N)cc(Cl)c4F)[nH]c3nc2=O)ccc1CO[C@H](CCNC(=N)N)CNC(=N)N [Compound 31]
29 | ≤ 16 µg/mL | ≤ 16 µg/mL | COc1cc(-n2cc3cc(-c4cc(CCC[C@H](C)N)cc(Cl)c4F)[nH]c3nc2=O)ccc1CO[C@H](CCNC(=N)N)CNC(=N)N [Compound 32]
30 | ≤ 16 µg/mL | ≤ 16 µg/mL | C[C@H](N)CCCc1cc(Cl)c(F)c(-c2cc3cn(-c4cc(F)c(CO[C@H](CCNC(=N)N)CNC(=N)N)c(F)c4)c(=O)nc3[nH]2)c1 [Compound 56]
